According to patent US20240325469A1, “COMPOSITION FOR PREVENTION OR TREATMENT OF COGNITIVE DYSFUNCTION AND INTESTINAL DYSFUNCTION, COMPRISING LACTOBACILLUS PARACASEI NK112, CUSCUTA AUSTRALIS EXTRACT, AND CUSCUTA JAPONICA EXTRACT” (MTHERA PHARMA CO., LTD., priority 2021, published 2024):

How the values were obtained:
Type in all cases: in vivo, mouse
[1] = tested on: male C57BL/6 mice administered with Escherichia coli; experiment: Y-maze task, Escherichia coli-induced model; conditions: spontaneous alternation; E. coli model mice; donepezil 5 mg/kg
Experimental: In order to evaluate spatial cognitive ability, a Y-maze task was performed. In a Y-shaped maze that has a length of 40 cm, a width of 4 cm, and a height of 12 cm and is closed on all sides, three paths were designated as A, B, and C. Then, a mouse was placed in the center and observed for 8 minutes, and the total number of entries entered was recorded. If the mouse entered three different branches in turn, the alternation number was counted as 1. […] The alternation number is defined as entering all three in turn, and the calculation for evaluation of spatial cognitive function was performed using the following equation.
Spontaneous alternation (%)=(total number of alternation/(total number of entries-2))×100

[2] = tested on: male C57BL/6 mice administered with Escherichia coli; experiment: Novel object recognition test (NORT), Escherichia coli-induced model; conditions: recognition index; E. coli model mice; donepezil 5 mg/kg
Experimental: The mouse was moved to the behavior observation room and acclimatized for 5 minutes. Thereafter, in a 3-minute exposure trial, two identical objects (1 set) were placed in a box 30 cm apart, and the time the mouse recognized the objects for 3 minutes was measured. […] The recognition index (%) is converted into the preference for new objects (time to recognize novel objects/total recognition time)×100.

[3] = tested on: male C57BL/6 mice administered with Escherichia coli; experiment: Tail suspension test (TST), Escherichia coli-induced model; conditions: E. coli model mice; once a day for 5 days; NK112 samples 1×10^9 CFU, fluoxetine 1 mg/kg
Experimental: (§1) 5-week-old male C57BL/6 mice having a body weight of 19 to 21 g were divided into a normal group and an experimental group, with 6 mice per group, and acclimatized to the laboratory for 1 week, and then the experiment was performed. The experimental group was administered with Escherichia coli (1×10^9 CFU/mouse/day) orally once a day for 5 days, and the normal group was administered with physiological saline.
Thereafter, 1×10^9 CFU heat-treated lactic acid bacteria (heat-killed NK112), 1×10^9 CFU lactic acid bacteria lysate supernatant (NK112 cytoplasmic component), 1×10^9 CFU lactic acid bacteria lysate precipitate (NK112 cell wall component), or positive control group drug (fluoxetine 1 mg/kg) was administered once a day for 5 days, respectively. […]
According to the method of Steru et al. (Steru L, Chermat R, Thierry B, Simon P (1985) The tail suspension test: A new method for screening antidepressants in mice, Psychopharmacology, Vol. 85; pp. 367-370), A fixation apparatus was attached to the end of the mouse's tail about 1 cm, and then it was hung 50 cm away from the ground in a container with a diameter of 35 cm and a height of 50 cm. The immobility time of the experimental animals was measured for a total of 6 minutes.

[4] = tested on: male C57BL/6 mice administered with Escherichia coli; experiment: Forced swimming test (FST), Escherichia coli-induced model; conditions: E. coli model mice; once a day for 5 days; NK112 samples 1×10^9 CFU, fluoxetine 1 mg/kg
Experimental: as §1
(§2) Thereafter, 1×10^9 CFU heat-treated lactic acid bacteria (heat-killed NK112), 1×10^9 CFU lactic acid bacteria lysate supernatant (NK112 cytoplasmic component), 1×10^9 CFU lactic acid bacteria lysate precipitate (NK112 cell wall component), or positive control group drug (fluoxetine 1 mg/kg) was administered once a day for 5 days, respectively.
In the case of heat-treated lactic acid bacteria (heat-killed NK112), the precipitate obtained by centrifuging the lactic acid bacteria culture solution in MRS medium was suspended to 1×10^10 CFU/ml, and then heat-treated twice at 70° C. for 10 minutes each to prepare them. […]
A water tank with a height of 40 cm and a diameter of 20 cm was filled with water at a temperature of 25±1° C. to a height of 30 cm. […] The first 2 minutes were not measured as adaptation time, and the immobility time of the experimental animals was measured for the next 4 minutes. […]

corticosterone in blood = experiment: Corticosterone in blood, Escherichia coli-induced model; conditions: E. coli model mice; once a day for 5 days; NK112 samples 1×10^9 CFU, fluoxetine 1 mg/kg
Experimental: as §1, §2
In addition, the concentration of corticosterone in blood, which induces anxiety, in each mouse was also measured and shown in Table 2 below.

[5] = tested on: male C57BL/6 mice administered with Escherichia coli; experiment: Elevated plus maze (EPM) test, Escherichia coli-induced model; conditions: E. coli model mice; once a day for 5 days; NK112 samples 1×10^9 CFU, fluoxetine 1 mg/kg
Experimental: as §1, with “saline. […]” for “saline.”
The elevated plus maze is an experimental apparatus to measure the level of anxiety, depression, or stress, etc. […] The movements of the mouse placed in the elevated plus maze were recorded in a room with a brightness of 20 lux and a video camera installed above.
Specifically, a C57BL/6 mouse was placed facing the open arm with its head in the exact center of the elevated plus maze, and the time and number of times it spent in the open arms and the enclosed arms for 5 minutes were measured. […]
Of the total experimental time, time spent in open arms (OT) was calculated as [time spent in open arms/(time spent in open arms+time spent in enclosed arms)]×100. Open arm entry (OE) was calculated as [open arm entry/(open arm entry+enclosed arm entry)]×100. […]

Structure (SMILES)	Y-maze task (%) [1] [%]	NORT test (%) [2] [%]	TST test (%, immbolity time) [3] [%]	FST test (%, immobility time) [4] [%]	Corticosterone in blood (corticosterone in blood) [ng/mL]	EPM test (%, time spent in open arm) [5] [%]
COc1cc2c(cc1OC)C(=O)C(CC1CCN(Cc3ccccc3)CC1)C2 (stereo not drawn) [Donepezil, donepezil]	63.2	62.2	–	–	–	–
CNCCC(Oc1ccc(C(F)(F)F)cc1)c1ccccc1 (stereo not drawn) [Fluoxetine, fluoxetine]	–	–	33.5	32.1	202.5	9.8
